Columns and labels:
[1] = tested on: U-251; experiment: Cytotoxicity against human U251 cells assessed as growth inhibition after 48 hrs by SRB assay; type: functional; details: U-251, 48 h
[2] = tested on: EKVX; experiment: Cytotoxicity against human EKVX cells assessed as growth inhibition after 48 hrs by SRB assay; type: functional
[3] = Cytotoxicity against human HCC2998 cells assessed as growth inhibition after 48 hrs by SRB assay; type: functional; details: HCC 2998, 48 h
[4] = tested on: KM12; experiment: Cytotoxicity against human KM12 cells assessed as growth inhibition after 48 hrs by SRB assay; type: functional; details: KM12, 48 h
[5] = Cytotoxicity against human Hs 578T cells assessed as growth inhibition after 48 hrs by SRB assay; type: functional
[6] = Cytotoxicity against human TK10 cells assessed as growth inhibition after 48 hrs by SRB assay; type: functional; details: TK-10, 48 h
[7] = Cytotoxicity against human UACC62 cells assessed as growth inhibition after 48 hrs by SRB assay; type: functional; details: UACC-62, 48 h
[8] = Cytotoxicity against human SW620 cells assessed as growth inhibition after 48 hrs by SRB assay; type: functional; details: SW-620, 48 h
[9] = tested on: CCRF-CEM; experiment: Cytotoxicity against human CCRF-CEM cells assessed as growth inhibition after 48 hrs by SRB assay; type: functional
[10] = Cytotoxicity against human HOP62 cells assessed as growth inhibition after 48 hrs by SRB assay; type: functional; details: HOP-62, 48 h
[11] = tested on: NCI-H322M; experiment: Cytotoxicity against human NCI-H322M cells assessed as growth inhibition after 48 hrs by SRB assay; type: functional
[12] = tested on: Malme-3M; experiment: Cytotoxicity against human MALME-3M cells assessed as growth inhibition after 48 hrs by SRB assay; type: functional
[13] = Cytotoxicity against human SF295 cells assessed as growth inhibition after 48 hrs by SRB assay; type: functional; details: SF-295, 48 h
[14] = Cytotoxicity against human SKOV3 cells assessed as growth inhibition after 48 hrs by SRB assay; type: functional; details: SK-OV-3, 48 h
[15] = target: T1, Estrogen receptor (Homo sapiens, UniProt P03372)
T1 sequence (P03372 whole entry): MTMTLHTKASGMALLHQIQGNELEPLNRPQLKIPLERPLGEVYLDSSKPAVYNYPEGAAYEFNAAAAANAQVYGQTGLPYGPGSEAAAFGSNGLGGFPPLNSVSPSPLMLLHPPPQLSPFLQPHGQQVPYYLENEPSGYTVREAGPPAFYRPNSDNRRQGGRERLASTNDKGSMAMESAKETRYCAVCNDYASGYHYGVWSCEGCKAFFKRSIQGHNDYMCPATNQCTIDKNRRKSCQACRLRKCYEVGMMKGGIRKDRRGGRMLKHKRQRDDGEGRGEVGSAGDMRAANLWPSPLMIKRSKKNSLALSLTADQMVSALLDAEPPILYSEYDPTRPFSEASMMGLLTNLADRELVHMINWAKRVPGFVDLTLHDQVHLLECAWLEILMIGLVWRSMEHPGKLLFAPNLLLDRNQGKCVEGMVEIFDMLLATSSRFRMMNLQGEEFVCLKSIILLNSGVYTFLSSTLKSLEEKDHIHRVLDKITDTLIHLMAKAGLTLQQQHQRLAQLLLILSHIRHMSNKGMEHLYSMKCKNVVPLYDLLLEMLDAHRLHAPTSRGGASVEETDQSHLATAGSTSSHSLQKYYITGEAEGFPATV
Description: Displacement of [3H]-E2 from human ER-alpha incubated for 16 to 20 hrs by liquid scintillation counting analysis

[16] = tested on: NCI-H23; experiment: Cytotoxicity against human NCI-H23 cells assessed as growth inhibition after 48 hrs by SRB assay; type: functional; details: NCI-H23, 48 h
[17] = Cytotoxicity against human BT549 cells assessed as growth inhibition after 48 hrs by SRB assay; type: functional; details: BT-549, 48 h
[18] = tested on: SK-MEL-2; experiment: Cytotoxicity against human SK-MEL-2 cells assessed as growth inhibition after 48 hrs by SRB assay; type: functional; details: SK-MEL-2, 48 h
[19] = Cytotoxicity against human HCT15 cells assessed as growth inhibition after 48 hrs by SRB assay; type: functional; details: HCT-15, 48 h
[20] = tested on: SR; experiment: Cytotoxicity against human SR cells assessed as growth inhibition after 48 hrs by SRB assay; type: functional
[21] = tested on: NCI-H226; experiment: Cytotoxicity against human NCI-H226 cells assessed as growth inhibition after 48 hrs by SRB assay; type: functional; details: NCI-H226, 48 h
[22] = tested on: SK-MEL-5; experiment: Cytotoxicity against human SK-MEL-5 cells assessed as growth inhibition after 48 hrs by SRB assay; type: functional; details: SK-MEL-5, 48 h
[23] = Cytotoxicity against human DU145 cells assessed as growth inhibition after 48 hrs by SRB assay; type: functional; details: DU-145, 48 h
[24] = Cytotoxicity against human SF268 cells assessed as growth inhibition after 48 hrs by SRB assay; type: functional; details: SF-268, 48 h
[25] = tested on: A549; experiment: Cytotoxicity against human A549 cells assessed as growth inhibition after 48 hrs by SRB assay; type: functional; details: A549, 48 h
[26] = tested on: MCF7; experiment: Antiproliferative activity against human MCF7 cells after 72 hrs by MTT assay; details: mcf7
[27] = Cytotoxicity against human SNB75 cells assessed as growth inhibition after 48 hrs by SRB assay; type: functional; details: SNB-75, 48 h
[28] = read-out: LC50 (the source's name)

CCCCCCCCCC(=O)Oc1ccc(/C(=C(/C)c2ccccc2)c2ccc(OCCN3CCCC3)cc2)cc1
GI50 [1]: 8.01 µM | LC50 (50% lethal concentration) [1]: 29.8 µM | TGI [1]: 15.4 µM | GI50 [2]: 6.92 µM | LC50 [2]: 26.6 µM | TGI [2]: 13.6 µM | GI50 [3]: 8.66 µM | TGI [3]: 17.2 µM | CC50 [3, 28]: 34.3 µM | GI50 [4]: 8.79 µM | LC50 (concentration giving 50% net cell kill) [4]: 31.7 µM | TGI [4]: 16.7 µM | GI50 [5]: 9.55 µM | TGI [5]: 32.2 µM | CC50 [5, 28]: > 50 µM | GI50 [6]: 8.86 µM | LC50 [6]: 31.3 µM | TGI [6]: 16.7 µM | GI50 [7]: 9.18 µM | TGI [7]: 16.8 µM | CC50 [7, 28]: 30.9 µM | GI50 [8]: 8.57 µM | LC50 [8]: 28.5 µM | TGI [8]: 15.6 µM | GI50 [9]: 9.51 µM | TGI [9]: 22.3 µM | CC50 [9, 28]: 50 µM | GI50 [10]: 8.75 µM | LC50 (concentration giving 50% net cell kill) [10]: 34.1 µM | TGI [10]: 17.3 µM | GI50 [11]: 8.04 µM | TGI [11]: 15.7 µM | CC50 [11, 28]: 30.7 µM | GI50 [12]: 7.76 µM | TGI [12]: 15.7 µM | CC50 [12, 28]: 31.9 µM | GI50 [13]: 7.93 µM | LC50 (concentration killing 50% of cells) [13]: 28.6 µM | TGI [13]: 15.1 µM | GI50 [14]: 7.36 µM | TGI [14]: 14.8 µM | CC50 [14, 28]: 29.6 µM | IC50 [15]: 0.0484 µM | GI50 [16]: 7.74 µM | TGI [16]: 16.1 µM | CC50 [16, 28]: 33.4 µM | GI50 [17]: 8.22 µM | TGI [17]: 16.8 µM | CC50 [17, 28]: 34.5 µM | GI50 [18]: 9.49 µM | TGI [18]: 18.1 µM | CC50 [18, 28]: 34.4 µM | GI50 [19]: 6.69 µM | LC50 (concentration killing 50% of cells) [19]: 25.6 µM | TGI [19]: 13.1 µM | GI50 [20]: 9.08 µM | TGI [20]: 19 µM | CC50 [20, 28]: 39.7 µM | GI50 [21]: 9.42 µM | LC50 (50% lethal concentration) [21]: 36.4 µM | TGI [21]: 18.5 µM | GI50 [22]: 8.13 µM | TGI [22]: 14.9 µM | CC50 [22, 28]: 27.3 µM | GI50 [23]: 8 µM | LC50 [23]: 27.5 µM | TGI [23]: 14.8 µM | GI50 [24]: 8.16 µM | LC50 [24]: 36.3 µM | TGI [24]: 17.2 µM | GI50 [25]: 9.35 µM | LC50 [25]: 33.4 µM | TGI [25]: 17.7 µM | IC50 [26]: < 1 µM | GI50 [27]: 6.55 µM | LC50 [27]: 27.9 µM | TGI [27]: 13.5 µM
